Assay [1] relates to S. dimorphus DCMU transformants (CAT cassette). The assay can be described thus: Patching of DCMU-selected CAT-cassette transformants onto TAP agar with chloramphenicol. The assay is classed as cell-based, Scenedesmus dimorphus. The following applies: TAP agar medium containing 25 μg/mL CAM. The source says:
In order to determine if DCMU selection could result in incorporation of an expression cassette downstream of the psbA gene, A vector was constructed containing an expression cassette consisting of an endogenous promoter, a chloramphenicol acetyltransferase (CAT) gene, and an endogenous terminator cloned ˜500 bp downstream of the S264A/XbaI mutated psbA gene fragment from S. dimorphus and including the rpl20 gene. Transforming DNA is shown graphically in FIG. 4. In this instance the DNA segment labeled “CAT” is the chloramphenicol acetyl transferase gene from E. coli, the segment labeled “tufA” is the promoter and 5′ UTR sequence for the tufA gene from S. dimorphus, and the segment labeled “rbcL” is the 3′ UTR for the rbcL gene from S. dimorphus. The selection marker cassette is targeted to the S. dimorphus chloroplast genome via the segments labeled “Homology A2” and “Homology B2” which are 1000 bp fragments homologous to sequences of DNA adjacent to nucleotide 065,353 and include an S264A/XbaI mutated partial psbA coding sequence, its 3′UTR, and the rpl20 coding sequence. This vector targets integration of the selection marker cassette approximately 400 bp 3′ of the stop codon of the psbA gene.
Transforming DNA was introduced into S. dimorphus via particle bombardment (as described in EXAMPLE 1) with DNA carried on 550 nm gold particles, @500 psi and a shooting distance of 4 cm. […]

The next assay relates to Wildtype S. dimorphus. Description: Plating on TAP agar containing 5-fluorocytosine, wild type. Type of assay: cell-based, Scenedesmus dimorphus. The conditions noted are these: 1 mg/mL 5FC. The procedure:
To determine if functional codA is produced by transformed algae cells, cells were grown in TAP media to log phase, pelleted and resuspended to 10^8 cells/mL and plated onto TAP agar medium containing 1 mg/mL 5-fluorocytosine (5FC).
To determine if functional codA is produced by transformed algae cells, cells were plated onto TAP agar medium containing 1 mg/mL 5-fluorocytosine (5FC).

Assay [2] relates to S. obliquus transformants containing the codA transgene. The assay can be described thus: Plating on TAP agar containing 5-fluorocytosine, codA transformants of S. obliquus. Type of assay: cell-based, Scenedesmus obliquus. The conditions noted are these: 1 mg/mL 5FC. The source says:
In this example, a nucleic acid encoding cytosine deaminase gene (codA) from E. coli was introduced into S. obliquus. Transforming DNA is shown graphically in FIG. 23. In this instance the DNA segment labeled “codA cr” is the codA encoding gene (SEQ ID NO: 27, codA), the segment labeled “psbD” is the promoter and 5′ UTR for the psbD gene from S. dimorphus, the segment labeled “D1 3′” is the 3′ UTR for the psbA gene from […], and the segment labeled “CAT” is the chloramphenicol acetyl transferase gene (CAT) from E. coli, which is regulated by the promoter and 5′ UTR sequence for the tufA gene from S. dimorphus and the 3′ UTR sequence for the rbcL gene from S. dimorphus. The transgene expression cassette and selection marker are targeted to the S. obliquus chloroplast genome via the segments labeled “Homology A” and “Homology B” which are approximately 1000 bp fragments homologous to sequences of DNA adjacent to nucleotide 071,366 (Site 1; nucleotide locations according to the sequence available from NCBI for S. obliquus, NC—008101) on the 5′ and 3′ sides, respectively. All DNA segments were cloned into pUC19. All DNA manipulations carried out in the construction of this transforming DNA were essentially as described by Sambrook et al., Molecular Cloning: A Laboratory Manual (Cold Spring Harbor Laboratory Press 1989) and Cohen et al., Meth. Enzymol. 297, 192-208, 1998. […]

Assay [3] has as its system S. dimorphus transformants containing the codA transgene. The assay can be described thus: Plating on TAP agar containing 5-fluorocytosine, codA transformants. Type of assay: cell-based, Scenedesmus dimorphus. The conditions noted are these: 1 mg/mL 5FC. The text has this: In this example, a nucleic acid encoding cytosine deaminase gene (codA) from E. coli was introduced into S. dimorphus. Transforming DNA is shown graphically in FIG. 23. In this instance the DNA segment labeled “codA cr” is the codA encoding gene (SEQ ID NO: 31, codA), the segment labeled “psbD” is the promoter and 5′ UTR for the psbD gene from S. dimorphus, the segment labeled “D1 3′” is the 3′ UTR for the psbA gene from S. dimorphus, and the segment labeled “CAT” is the chloramphenicol acetyl transferase gene (CAT) from E. coli, which is regulated by the promoter and 5′ UTR sequence for the tufA gene from S. dimorphus and the 3′ UTR sequence for the rbcL gene from S. dimorphus. The transgene expression cassette and selection marker are targeted to the S. dimorphus chloroplast genome via the segments labeled “Homology A” and “Homology B” which are approximately 1000 bp fragments homologous to sequences of DNA adjacent to nucleotide 071,366 (Site 1; nucleotide locations according to the sequence available from NCBI for S. obliquus, NC—008101) on the 5′ and 3′ sides, respectively. All DNA segments were cloned into pUC19. All DNA manipulations carried out in the construction of this transforming DNA were essentially as described by Sambrook et al., Molecular Cloning: A Laboratory Manual (Cold Spring Harbor Laboratory Press 1989) and Cohen et al., Meth. Enzymol. 297, 192-208, 1998. […]

Another assay concerns wild type S. dimorphus. The assay can be described thus: Growth in HSM with various concentrations of DCMU or atrazine, wild type. Type of assay: cell-based, Scenedesmus dimorphus. The conditions noted are these: constant light 50-100 uE with CO2 enrichment, 4 days.

For the molecule `O=C(N[C@H](CO)[C@H](O)c1ccc([N+](=O)[O-])cc1)C(Cl)Cl` [CAM, chloramphenicol], the “resistance of transformants to chloramphenicol” value in assay [1] is listed as “resistant”.

Take `Nc1nc(=O)[nH]cc1F` [5FC, 5-fluorocytosine]: the “survival on TAP agar containing 5FC” value in the assay with Wildtype S. dimorphus is recorded as “survived”; in assay [2] it was “did not”; in assay [3], “do not”.

As for `CN(C)C(=O)Nc1ccc(Cl)c(Cl)c1` [DCMU, 3-(3,4-Dichlorophenyl)-1,1-dimethylurea], the “concentration in which cells fail to grow” value in the assay with wild type S. dimorphus came to 0.5 µM.

On to `CCNc1nc(Cl)nc(NC(C)C)n1` [Atrazine], for which the “concentration in which cells fail to grow” value in the assay with wild type S. dimorphus worked out at 0.5 µM.

The values are drawn from US20120252054A1, “SYSTEM FOR TRANSFORMATION OF THE CHLOROPLAST GENOME OF SCENEDESMUS SP. AND DUNALIELLA SP” (priority 2009, published 2012).
